Source: ChEMBL document CHEMBL1201862, “PubChem BioAssay data set” (2004)
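Dose response: 5 concentrations. Exposure: 48 h. Format: 96-well plates. Endpoint: linear interpolation; highest concentration if not reached. Abbreviation: GI50, concentration required for 50% inhibition of growth.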 Activity calls are given as the source filed them. No stated cut-off is given here; in the data, active = GI50 up to about 1.1 µM and inactive = higher.

How the values were obtained:
Test in all cases: NCI-60 cell line screen, 48 h
[1] = test system: SR
[2] = test system: RPMI-8226
[3] = test system: HCC 2998
[4] = test system: MOLT-4
[5] = test system: HOP-62
[6] = test system: OVCAR-3
[7] = test system: OVCAR-4
[8] = test system: A549
[9] = test system: T47D
[10] = test system: UACC-257
[11] = test system: NCI-H460
[12] = test system: CCRF-CEM
[13] = test system: SNB-75
[14] = test system: SK-OV-3
[15] = test system: BT-549
[16] = test system: HOP-92
[17] = test system: MDA-MB-435
[18] = test system: KM12
[19] = test system: SNB-19
[20] = test system: NCI-H23
[21] = test system: UACC-62
[22] = test system: SF-268
[23] = test system: Hs-578T
[24] = test system: IGROV-1
[25] = test system: A498
[26] = test system: SF-295
[27] = test system: 786-0
[28] = test system: DU-145
[29] = test system: SK-MEL-5
[30] = test system: HCT-116
[31] = test system: RXF 393
[32] = test system: M14
[33] = test system: ACHN
[34] = test system: LOX IMVI
[35] = test system: HCT-15
[36] = test system: SK-MEL-28
[37] = test system: MDA-MB-231
[38] = test system: Malme-3M
[39] = test system: TK-10
[40] = test system: NCI/ADR-RES
[41] = test system: OVCAR-8
[42] = test system: EKVX
[43] = test system: HL-60
[44] = test system: K562
[45] = test system: SK-MEL-2
[46] = test system: PC-3
[47] = test system: SW-620
[48] = test system: OVCAR-5
[49] = test system: HT-29
[50] = test system: COLO 205
[51] = test system: NCI-H226
[52] = test system: UO-31
[53] = test system: NCI-H522
[54] = test system: U-251
[55] = test system: CAKI-1
[56] = test system: MCF7
[57] = test system: SN12C
[58] = test system: SF-539

Measured: GI50

C=CCON(C(=O)OC(C)(C)C)C(C)(C)C
inactive: [1] > 100 µM | [2] > 100 µM | [3] > 100 µM | [4] > 100 µM | [5] > 100 µM | [6] > 100 µM | [7] 1.55 µM | [8] > 100 µM | [9] > 100 µM | [10] > 100 µM | [11] > 100 µM | [12] > 100 µM | [13] > 100 µM | [14] > 100 µM | [15] > 100 µM | [16] > 100 µM | [17] > 100 µM | [18] > 100 µM | [19] > 100 µM | [20] > 100 µM | [21] > 100 µM | [22] > 100 µM | [23] > 100 µM | [24] > 100 µM | [25] > 100 µM | [26] > 100 µM | [27] > 100 µM | [28] > 100 µM | [29] > 100 µM | [30] > 100 µM | [31] > 100 µM | [32] > 100 µM | [33] > 100 µM | [34] > 100 µM | [36] > 100 µM | [37] > 100 µM | [38] > 100 µM | [39] > 100 µM | [40] > 100 µM | [41] > 100 µM | [42] > 100 µM | [43] > 100 µM | [44] > 100 µM | [45] > 100 µM | [46] > 100 µM | [47] > 100 µM | [48] > 100 µM | [49] > 100 µM | [50] > 100 µM | [51] > 100 µM | [52] > 100 µM | [53] > 100 µM | [54] > 100 µM | [55] > 100 µM
> 100 µM: [35]

CC(=O)OC(CN1CCN(c2ccccn2)CC1)Cn1sc2nc(C)cc(C)c2c1=O (stereo not drawn)
inactive: [1] 4.61 µM | [2] 5.12 µM | [3] 19.5 µM | [4] 5.58 µM | [5] 28.8 µM | [6] 21.2 µM | [7] 22.4 µM | [56] 17.9 µM | [8] 20.6 µM | [9] 28 µM | [10] 17.7 µM | [11] 18.5 µM | [12] 5.78 µM | [13] 16 µM | [14] 17.9 µM | [15] 18.6 µM | [16] 48.3 µM | [17] 16.9 µM | [18] 21.4 µM | [19] > 100 µM | [20] 20.8 µM | [21] 16.4 µM | [57] 18.9 µM | [22] 17.3 µM | [23] 20.7 µM | [24] 18.2 µM | [25] 18.1 µM | [26] > 100 µM | [27] 14.9 µM | [28] 19 µM | [29] 13.2 µM | [30] 16.3 µM | [31] 20.2 µM | [32] 16.5 µM | [33] 16.4 µM | [34] 21.3 µM | [36] 20 µM | [37] 17.9 µM | [38] 18.6 µM | [39] 17.3 µM | [40] 27 µM | [41] 28.7 µM | [42] 17.3 µM | [43] 16.8 µM | [44] 32.7 µM | [58] 14.6 µM | [45] 18.3 µM | [46] 17.5 µM | [47] 26.4 µM | [48] 17.5 µM | [49] 18.6 µM | [50] 15.8 µM | [51] > 100 µM | [52] 16.3 µM | [53] 7.03 µM | [54] 18.1 µM | [55] 18.9 µM
20 µM: [35]
